What all share (format): ADME
The target of series [1] is T1, ATP-binding cassette sub-family C member 4 (Homo sapiens, UniProt O15439).
T1 sequence (O15439 whole entry): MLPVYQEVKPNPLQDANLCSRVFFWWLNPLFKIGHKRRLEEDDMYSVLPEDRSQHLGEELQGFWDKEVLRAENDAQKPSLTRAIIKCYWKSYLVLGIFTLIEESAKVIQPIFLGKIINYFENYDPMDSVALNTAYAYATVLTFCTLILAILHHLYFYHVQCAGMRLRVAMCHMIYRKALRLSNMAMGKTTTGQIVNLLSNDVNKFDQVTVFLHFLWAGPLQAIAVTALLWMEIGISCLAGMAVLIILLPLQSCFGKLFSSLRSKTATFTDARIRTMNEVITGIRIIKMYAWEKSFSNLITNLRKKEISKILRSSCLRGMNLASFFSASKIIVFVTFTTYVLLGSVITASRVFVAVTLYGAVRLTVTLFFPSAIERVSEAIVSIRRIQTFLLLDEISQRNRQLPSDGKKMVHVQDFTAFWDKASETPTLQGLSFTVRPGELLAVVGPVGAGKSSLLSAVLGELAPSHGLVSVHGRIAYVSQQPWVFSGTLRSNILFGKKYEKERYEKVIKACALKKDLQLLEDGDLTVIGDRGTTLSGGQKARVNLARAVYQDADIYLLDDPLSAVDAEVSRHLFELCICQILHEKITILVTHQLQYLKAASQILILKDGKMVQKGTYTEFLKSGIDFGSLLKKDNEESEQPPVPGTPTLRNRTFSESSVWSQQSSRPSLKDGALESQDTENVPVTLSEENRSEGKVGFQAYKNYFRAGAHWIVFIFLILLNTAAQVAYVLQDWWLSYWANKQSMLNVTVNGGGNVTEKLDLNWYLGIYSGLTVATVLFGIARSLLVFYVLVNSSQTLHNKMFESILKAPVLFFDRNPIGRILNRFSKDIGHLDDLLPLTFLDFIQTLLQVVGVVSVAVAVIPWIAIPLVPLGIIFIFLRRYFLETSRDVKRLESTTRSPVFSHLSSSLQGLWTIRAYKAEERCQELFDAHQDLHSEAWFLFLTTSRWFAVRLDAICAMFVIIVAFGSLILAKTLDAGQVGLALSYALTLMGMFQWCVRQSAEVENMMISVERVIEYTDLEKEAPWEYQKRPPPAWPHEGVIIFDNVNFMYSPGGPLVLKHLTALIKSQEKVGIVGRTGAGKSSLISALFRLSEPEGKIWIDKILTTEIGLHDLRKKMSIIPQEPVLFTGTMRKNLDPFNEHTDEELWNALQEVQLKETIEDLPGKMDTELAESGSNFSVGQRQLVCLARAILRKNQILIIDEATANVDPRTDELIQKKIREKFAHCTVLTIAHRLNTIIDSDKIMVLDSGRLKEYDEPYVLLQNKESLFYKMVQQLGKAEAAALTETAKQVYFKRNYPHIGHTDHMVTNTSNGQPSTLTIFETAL
In words: Inhibitors of transporters of clinical importance in the absorption and disposition of drugs, MRP4.

In series [2] the target is T2, Solute carrier family 15 member 1 (Homo sapiens, UniProt P46059).
T2 sequence (P46059 whole entry): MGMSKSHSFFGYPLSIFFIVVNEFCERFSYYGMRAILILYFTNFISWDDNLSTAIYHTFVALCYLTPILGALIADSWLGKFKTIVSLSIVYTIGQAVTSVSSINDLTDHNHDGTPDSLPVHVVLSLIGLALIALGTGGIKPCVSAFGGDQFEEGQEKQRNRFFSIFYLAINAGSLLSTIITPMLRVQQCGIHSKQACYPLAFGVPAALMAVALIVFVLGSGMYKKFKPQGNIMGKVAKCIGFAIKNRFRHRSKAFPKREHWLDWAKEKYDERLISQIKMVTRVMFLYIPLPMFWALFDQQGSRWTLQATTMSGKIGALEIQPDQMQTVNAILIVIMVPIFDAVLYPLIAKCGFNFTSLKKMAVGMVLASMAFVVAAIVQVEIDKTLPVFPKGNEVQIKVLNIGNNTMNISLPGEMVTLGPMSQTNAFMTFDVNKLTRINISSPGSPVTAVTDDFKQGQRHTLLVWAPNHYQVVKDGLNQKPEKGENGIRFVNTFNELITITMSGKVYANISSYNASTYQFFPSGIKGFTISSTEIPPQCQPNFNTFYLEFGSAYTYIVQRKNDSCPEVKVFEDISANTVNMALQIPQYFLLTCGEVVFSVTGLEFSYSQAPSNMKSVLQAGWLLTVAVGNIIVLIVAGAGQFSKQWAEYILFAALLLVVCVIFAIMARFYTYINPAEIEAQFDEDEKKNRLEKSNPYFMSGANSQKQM
In words: Inhibitors of transporters of clinical importance in the absorption and disposition of drugs, PEPT1.

Series [3] has as its target T3, Solute carrier family 22 member 6 (Homo sapiens, UniProt Q4U2R8).
T3 sequence (Q4U2R8 whole entry): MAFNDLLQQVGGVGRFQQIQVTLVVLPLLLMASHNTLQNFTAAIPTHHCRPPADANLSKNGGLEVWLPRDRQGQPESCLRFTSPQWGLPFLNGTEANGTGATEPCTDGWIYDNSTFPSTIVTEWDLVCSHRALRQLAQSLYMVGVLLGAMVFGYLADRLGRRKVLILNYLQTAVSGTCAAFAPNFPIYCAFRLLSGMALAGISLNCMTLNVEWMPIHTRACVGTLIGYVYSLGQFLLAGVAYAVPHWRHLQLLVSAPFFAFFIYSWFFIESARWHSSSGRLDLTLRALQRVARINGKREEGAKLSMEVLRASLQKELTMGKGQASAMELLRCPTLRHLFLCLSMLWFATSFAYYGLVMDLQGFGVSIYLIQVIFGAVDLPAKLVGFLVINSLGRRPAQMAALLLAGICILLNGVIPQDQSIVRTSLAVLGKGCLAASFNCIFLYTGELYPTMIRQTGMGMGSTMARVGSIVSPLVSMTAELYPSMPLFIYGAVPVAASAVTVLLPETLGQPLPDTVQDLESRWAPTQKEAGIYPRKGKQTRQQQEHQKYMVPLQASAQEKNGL
In words: Inhibitors of transporters of clinical importance in the absorption and disposition of drugs, OAT1.

For series [4], the target named is T4, Organic anion transporter 3 (Homo sapiens, UniProt Q8TCC7).
T4 sequence (Q8TCC7 whole entry): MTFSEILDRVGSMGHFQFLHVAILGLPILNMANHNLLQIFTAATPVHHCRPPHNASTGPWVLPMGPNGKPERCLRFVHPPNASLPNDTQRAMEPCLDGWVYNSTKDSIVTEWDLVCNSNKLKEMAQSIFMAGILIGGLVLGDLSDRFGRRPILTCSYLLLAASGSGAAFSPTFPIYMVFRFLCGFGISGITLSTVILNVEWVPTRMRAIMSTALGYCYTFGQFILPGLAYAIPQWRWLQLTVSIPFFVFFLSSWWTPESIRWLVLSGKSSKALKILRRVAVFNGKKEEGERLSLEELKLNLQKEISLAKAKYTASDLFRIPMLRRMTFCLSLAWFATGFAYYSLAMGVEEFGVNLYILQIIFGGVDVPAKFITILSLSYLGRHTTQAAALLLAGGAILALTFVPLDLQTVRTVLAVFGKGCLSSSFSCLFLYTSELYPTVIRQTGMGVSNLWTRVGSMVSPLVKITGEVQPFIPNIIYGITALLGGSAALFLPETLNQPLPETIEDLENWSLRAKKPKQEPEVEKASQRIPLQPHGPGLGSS
In words: Inhibitors of transporters of clinical importance in the absorption and disposition of drugs, OAT3.

Each structure is given as a SMILES string. Peptide text beside a SMILES is read from it.

For `O=C(O)Cc1ccccc1Nc1c(Cl)cccc1Cl` [DICLOFENAC], the Activity entry in series [1] is recorded as “transporter inhibitor”.

Consider `NCC(=O)N1CCC[C@H]1C(=O)O` [GLYCYL PROLINE] (H-Gly-Pro-OH), for which the Activity entry in series [2] is reported as “transporter inhibitor”.

With `CO[C@@H]1[C@@H](OC(N)=O)[C@@H](O)[C@H](Oc2ccc3c(O)c(NC(=O)c4ccc(O)c(CC=C(C)C)c4)c(=O)oc3c2C)OC1(C)C` [NOVOBIOCIN], the Activity result in series [3] and in series [4] was “transporter inhibitor” each time.

On to `Cc1ccc(-c2cc(C(F)(F)F)nn2-c2ccc(S(N)(=O)=O)cc2)cc1` [CELECOXIB], for which the Activity result in series [1] is “transporter inhibitor”.

(Values after ChEMBL document CHEMBL1743141, “Membrane transporters in drug development” (Nat Rev Drug Discov, 2010).)
